The values that follow come from ChEMBL document CHEMBL5143665, “Discovery and preclinical evaluations of WX-0593, a novel ALK inhibitor targeting crizotinib-resistant mutations” (Bioorg Med Chem Lett, 2022).

Series [1] has as its system BaF3. The series is described as follows: cells. Particulars: Mus musculus.
Description: Antiproliferative activity against mouse BaF3 cells harbouring ALK C1156Y mutant assessed as reduction in cell viability by Celltitre-Glo luminescent assay
Series [2] relates to BaF3. Briefly: cells. Particulars: Mus musculus. The source holds these as a separate data set.
Description: Antiproliferative activity against mouse BaF3 cells harbouring ALK L1196M mutant assessed as reduction in cell viability by Celltitre-Glo luminescent assay
A further series has as its system KARPAS-299. Briefly: cells. The conditions noted are these: Homo sapiens.
Series [3] has as its system BaF3. The series is described as follows: cells. The conditions noted are these: Mus musculus. The source holds these as a separate data set.
Description: Antiproliferative activity against mouse BaF3 cells harbouring ALK wild type assessed as reduction in cell viability by Celltitre-Glo luminescent assay
Series [4] in a line: AUC (0 to last) in mouse at 10 mg/kg, po. In kind it is ADME, organism-based. Also on record: time 0 - last, dose 10 mg/kg, route po. The conditions noted are these: in vivo.
The nature of series [5]: Volume of distribution at steady state in mouse at 1 mg/kg, iv. Format: ADME, organism-based. The conditions noted are these: in vivo, read-out: Vdss.
Series [6] is described as follows: Cmax in mouse at 10 mg/kg, po. Format: ADME, organism-based. Also on record: dose 10 mg/kg, route po. Particulars: in vivo.
Series [7] can be described thus: Half-life in mouse at 1 mg/kg, iv. Format: ADME, organism-based. The conditions noted are these: in vivo.
The nature of series [8]: Oral bioavailability in mouse at 10 mg/kg. Format: ADME, organism-based. The conditions noted are these: in vivo.
A short description of series [9]: Clearance in mouse at 1 mg/kg, iv. The conditions noted are these: in vivo. In kind it is ADME, organism-based.
Series [10] is described as follows: Clearance in Balb/c nude mouse at 1 mg/kg, iv. In kind it is ADME, organism-based. Particulars: in vivo.
Series [11] in a line: cells. The conditions noted are these: Mus musculus, BaF3, 72 h.
Series [12] has as its system BaF3. Briefly: Antiproliferative activity against mouse BaF3 cells harbouring CD74-ROS1-S1986F mutant assessed as reduction in cell viability incubated for 72 hrs by Celltitre-Glo luminescent assay. In kind it is functional, cell-based. Particulars: BaF3, 72 h.
Series [13] has as its system BaF3. Briefly: Antiproliferative activity against crizotinib resistant mouse BaF3 cells expressing EML4 fused ALK V1180L mutant assessed as reduction in cell viability incubated for 72 hrs by Celltitre-Glo luminescent assay. In kind it is functional, cell-based. Particulars: BaF3, 72 h.
The nature of series [14]: cells. Particulars: Mus musculus, Ba/F3 EML4-ALK, 72 h.
Series [15] can be described thus: cells. Particulars: Mus musculus, Ba/F3 EML4-ALK-G1202R, 72 h.
For series [16], the system named is BaF3. The series is described as follows: Antiproliferative activity against mouse BaF3 cells harbouring CD74-ROS1-S1986Y mutant assessed as reduction in cell viability incubated for 72 hrs by Celltitre-Glo luminescent assay. In kind it is functional, cell-based. Particulars: BaF3, 72 h.
The test system of series [17] is BaF3. The series is described as follows: Antiproliferative activity against crizotinib resistant mouse BaF3 cells expressing EML4 fused ALK T1151Tins mutant assessed as reduction in cell viability incubated for 72 hrs by Celltitre-Glo luminescent assay. In kind it is functional, cell-based. The conditions noted are these: BaF3, 72 h.
The test system of series [18] is BaF3. The series is described as follows: Antiproliferative activity against crizotinib resistant mouse BaF3 cells expressing EML4 fused ALK I1171T mutant assessed as reduction in cell viability incubated for 72 hrs by Celltitre-Glo luminescent assay. Format: functional, cell-based. Particulars: BaF3, 72 h.
Series [19] has as its system BaF3. The series is described as follows: Antiproliferative activity against crizotinib resistant mouse BaF3 cells expressing EML4 fused ALK F1174C mutant assessed as reduction in cell viability incubated for 72 hrs by Celltitre-Glo luminescent assay. The conditions noted are these: BaF3, 72 h. Format: functional, cell-based.
The nature of series [20]: cells. Particulars: Mus musculus, BaF3, 72 h. The source holds these as a separate data set.
In series [21] the test system is BaF3. The series is described as follows: Antiproliferative activity against crizotinib resistant mouse BaF3 cells expressing EML4 fused ALK I1171S mutant assessed as reduction in cell viability incubated for 72 hrs by Celltitre-Glo luminescent assay. Format: functional, cell-based. The conditions noted are these: BaF3, 72 h.
Series [22] in a line: cells. Particulars: Mus musculus, BaF3, 72 h. This is another data set of the same source.
Series [23] concerns BaF3. The series is described as follows: Antiproliferative activity against crizotinib resistant mouse BaF3 cells expressing EML4 fused ALK L1152P mutant assessed as reduction in cell viability incubated for 72 hrs by Celltitre-Glo luminescent assay. In kind it is functional, cell-based. The conditions noted are these: BaF3, 72 h.
Series [24] deals with BaF3. The series is described as follows: Antiproliferative activity against mouse BaF3 cells harbouring CD74-ROS1-D2033N mutant assessed as reduction in cell viability incubated for 72 hrs by Celltitre-Glo luminescent assay. In kind it is functional, cell-based. The conditions noted are these: BaF3, 72 h.
Series [25] relates to BaF3. The series is described as follows: Antiproliferative activity against crizotinib resistant mouse BaF3 cells expressing EML4 fused ALK I1171N mutant assessed as reduction in cell viability incubated for 72 hrs by Celltitre-Glo luminescent assay. The conditions noted are these: BaF3, 72 h. In kind it is functional, cell-based.
For series [26], the system named is BaF3. Briefly: Antiproliferative activity against crizotinib resistant mouse BaF3 cells expressing EML4 fused ALK F1174V mutant assessed as reduction in cell viability incubated for 72 hrs by Celltitre-Glo luminescent assay. In kind it is functional, cell-based. Particulars: BaF3, 72 h.
Series [27] concerns BaF3. Briefly: Antiproliferative activity against crizotinib resistant mouse BaF3 cells expressing EML4 fused ALK L1152R mutant assessed as reduction in cell viability incubated for 72 hrs by Celltitre-Glo luminescent assay. Particulars: BaF3, 72 h. In kind it is functional, cell-based.
Series [28] deals with BaF3. The series is described as follows: Antiproliferative activity against mouse BaF3 cells harbouring SLC34A2-ROS1-L2026M mutant assessed as reduction in cell viability incubated for 72 hrs by Celltitre-Glo luminescent assay. Particulars: BaF3, 72 h. Format: functional, cell-based.

Structures are written as SMILES.

Description for KARPAS-299: Antiproliferative activity against human KARPAS-299 cells harbouring wild type ALK assessed as reduction in cell viability by Celltitre-Glo luminescent assay

Regarding `COc1cc(C2CCC3(CC2)CCN(C)CC3)ccc1Nc1ncc(Cl)c(Nc2ccccc2P(C)(C)=O)n1`, the half-maximal inhibitory concentration (IC50) worked out at 30 nM with BaF3 [1], 27 nM in the series with BaF3 [2], 36 nM with KARPAS-299 and 11 nM with BaF3 [3].

`COc1cc(N2CCC3(CCNCC3)CC2)ccc1Nc1ncc(Cl)c(Nc2ccccc2P(C)(C)=O)n1` returned an exposure AUC(0-t) in series [4] of 1630 ng·h/mL. Also, the Vd in [5] came out at 1.3 L/kg. This compound also showed a Cmax in series [6] of 977 ng/mL. In addition, the half-life in series [7] was 3.6 h. For the same compound, the IC50 with KARPAS-299 came out at 77 nM. This compound also registered a bioavailability in [8] of 18.5%. This compound returned a clearance in series [9] of 20.1 mL/min/kg.

Regarding `COc1cc(N2CCC3(CCN(C)CC3)CC2)c(F)cc1Nc1ncc(Cl)c(Nc2ccccc2P(C)(C)=O)n1`, the IC50 with KARPAS-299 came to 15 nM.

For the compound `COc1cc(N2CCC3(CCN(C)CC3)CC2)ccc1Nc1ncc(Cl)c(Nc2ccc(F)cc2P(C)(C)=O)n1`, the IC50 stood at 17 nM with BaF3 [1], 18 nM in the series with BaF3 [2], 20 nM in the series with KARPAS-299 and 8 nM in the series on BaF3 [3].

The compound `COc1cc(N2CCC3(CNC3)C2)ccc1Nc1ncc(Cl)c(Nc2ccccc2P(C)(C)=O)n1` returned an exposure AUC(0-t) in [4] of 27.7 ng·h/mL. In series [5], the Vd was found to be 3.1 L/kg. This compound had a Cmax in series [6] of 28.7 ng/mL. This compound had a half-life in series [7] of 1.1 h. The IC50 with KARPAS-299 was determined as 126 nM. In series [8], this compound gave a bioavailability of 1.2%. In addition, in series [9], the clearance was 69 mL/min/kg.

`COc1cc(N2CCC3(CCN(C)CC3)CC2)c(Cl)cc1Nc1ncc(Cl)c(Nc2ccccc2P(C)(C)=O)n1`: the IC50 with BaF3 [1] amounted to 15 nM; in the series on BaF3 [2] it was 12 nM; in the series on KARPAS-299, 87 nM; in the series with BaF3 [3] it was 10 nM.

Turning to `CN1CCC2(CC1)CCN(c1ccc(Nc3ncc(Cl)c(Nc4ccccc4P(C)(C)=O)n3)c(OC(F)F)c1)CC2`, the IC50 with BaF3 [1] amounted to 36 nM; in the series on BaF3 [2] it was 39 nM; with KARPAS-299, 15 nM; in the series with BaF3 [3], 24 nM.

In [4], `COc1cc(N2CCC3(CC2)CNC3)ccc1Nc1ncc(Cl)c(Nc2ccccc2P(C)(C)=O)n1` gave an AUC(0-t) of 219 ng·h/mL. In series [5], the Vd came to 1.7 L/kg. For the same compound, the concentration in [6] peaked (Cmax) at 113 ng/mL. In [7], the half-life is 1.5 h. The IC50 in the series on KARPAS-299 was determined as 60 nM. Besides, the bioavailability in series [8] is 5.2%. Further, the clearance in series [9] stood at 49 mL/min/kg.

For `COc1cc(N2CCC3(CCNC3)CC2)ccc1Nc1ncc(Cl)c(Nc2ccccc2P(C)(C)=O)n1`, the IC50 in the series with KARPAS-299 is 78 nM.

As for `COc1cc(N2CCC3(CCN(C)CC3)CC2)c(C)cc1Nc1ncc(Cl)c(Nc2ccccc2P(C)(C)=O)n1`, in the series on KARPAS-299, half-maximal inhibition (IC50) was put at 62 nM.

For `COc1cc(N2CCC3(CCN(C)CC3)CC2)ccc1Nc1ncc(Cl)c(Nc2ccccc2P(C)(C)=S)n1`, the IC50 in the series with BaF3 [1] was 12 nM; with BaF3 [2], 8 nM; in the series on KARPAS-299, 30 nM; in the series on BaF3 [3], 5 nM. Besides, in series [10], the clearance was 61 mL/min/kg.

With `COc1cc(N2CCC(N3CCN(C)CC3)CC2)ccc1Nc1ncc(Cl)c(Nc2ccccc2P(C)(C)=O)n1` [BRIGATINIB], the IC50 in “cells [11]” is 31 nM; in the series on BaF3 [12] it was 20 nM; with BaF3 [13] it was 10 nM; in the series “cells [14]”, 25 nM; in “cells [15]”, 340 nM; in the series on BaF3 [16], 12 nM. Also, the IC50 with BaF3 [17] was 35 nM; with BaF3 [18], 19 nM; in the series with BaF3 [19] it was 98 nM; in “cells [20]” it was 31 nM; with BaF3 [21], 93 nM; in the series “cells [22]”, 22 nM. For the same compound, the IC50 in the series on BaF3 [23] was determined as 1 nM; with BaF3 [24], 36 nM; in the series with BaF3 [25] it was 35 nM; in the series with BaF3 [26], 47 nM; with BaF3 [27], 10 nM; in the series with BaF3 [28], 48 nM.

As usually defined, the IC50 is the concentration needed to halve the response being measured. As usually defined, the AUC(0-t) is exposure summed from dosing to a finite time, without extrapolation to infinity. As a reminder, the Cmax is the peak of the concentration-time curve. Usually half-life stands for how long it takes for the measured level to halve. Read a high half-life as slow decline. As a reminder, the bioavailability is the share of a dose that reaches the circulation, judged against a reference dose that is usually intravenous. High values mean much systemic uptake, low ones little systemic uptake. In general, clearance refers to a measure of how efficiently the substance is removed, as volume per time. A low value points to inefficient removal.
